The record followed here is patent US20110183978A1, “Phenylpyri(mi)dinylazoles” (Bayer CropScience AG, priority 2009, published 2011).

Where two headings read alike, the source gives them in different places.

The subject of one series is Peronospora parasitica. In words: Example A: in vivo test on Peronospora parasitica (downy mildew on white cabbage). As to conditions: Hyaloperonospora parasitica, 120 h, cabbage plants sprayed 24 hours before inoculation, scored after 5 days, read-out: % Wirkungsgrad. The procedure: In Vivo Test on Peronospora Parasitica (Downy Mildew on White Cabbage) An aqueous suspension of the active substance was prepared by homogenization of a mixture of acetone/Tween (dispersant)/dimethyl sulphoxide (DMSO) and subsequent dilution with water to the desired concentration. Cabbage plants (variety: Eminence) are sown in cultivation dishes on a peat-pozzolanic earth substrate (50/50) at 18-20° C. and sprayed at the cotyledon stage with the aqueous suspension described above. As a control, plants are sprayed with an aqueous solution with no active substance. After 24 hours, the plants are inoculated by spraying with an aqueous suspension of Peronospora parasitica spores (50,000 spores per ml). The spores are derived from infected plants. The inoculated cabbage plants are incubated for 5 days at ca. 20° C. in a moist atmosphere. After 5 days, they are scored in comparison with the control plants.

In series [1] the test system is Sphaerotheca fuliginea. The experiment in a line: Example D: in vivo test on Sphaerotheca fuliginea (powdery mildew on cucumber). The following applies: Podosphaera fuliginea, 288 h, cucumber plants sprayed 24 hours before inoculation, scored after 12 days, read-out: % Wirkungsgrad. The procedure:
In Vivo Test on Sphaerotheca Fuliginea (Powdery Mildew on Cucumber) An aqueous suspension of the active substance was prepared by homogenization of a mixture of acetone/Tween/dimethyl sulphoxide and subsequent dilution with water to the desired concentration. Cucumber plants (variety: Vert petit de Paris) are sown in cultivation dishes on a peat-pozzolanic earth substrate (50/50) at 20/23° C. and at the cotyledon stage Z10 sprayed with the aqueous suspension described above. As a control, plants are sprayed with an aqueous solution with no active substance. After 24 hours the plants are inoculated by spraying with an aqueous suspension of Sphaerotheca fuliginea spores (100,000 spores per ml). The spores are derived from a contaminated plant. The inoculated cucumber plants are incubated at ca. 20/25° C. at a relative atmospheric humidity of 60/70%. After 12 days they are scored in comparison with the control plants.

The subject of a further series is Fusarium proliferatum. The experiment in a line: Example I: production of fumonisin FB1 by Fusarium proliferatum (microtitre plates). The series is classed as cell-based. The following applies: 120 h.
Another series deals with Alternaria solani. In words: Example M: in vivo test on Alternaria solani (leaf blotch disease/tomato/protective). As to conditions: 168 h, tomato, protective, 500 ppm active substance, assessed 7 days after inoculation, read-out: % Wirkungsgrad (activity level). The procedure, abridged: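 Alternaria solani infection on tomato scored 7 days post-inoculation. Before inoculation, young plants received a protective spray at the stated application dose; formulation was compound mixed with N,N-dimethylformamide and emulsifier, water-diluted.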

Another series deals with Fusarium graminearum. In words: microbe, parasite or virus in culture. The series is classed as cell-based.
Series [2] relates to Sphaerotheca fuliginea. In words: Example L: in vivo test on Sphaerotheca fuliginea (powdery mildew on cucumber/protective). The following applies: Podosphaera fuliginea, 168 h, cucumber, protective, assessment 7 days after inoculation, read-out: % Wirkungsgrad. The procedure, abridged: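 Young cucumber plants sprayed at stated dosage with compound in DMF/alkylaryl polyglycol ether emulsifier diluted in water; inoculated with S. fuliginea spores one day later. Kept in greenhouse at 70% relative humidity, 23° C; protective activity assessed 7 days after inoculation.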

The next series relates to Plasmopara viticola. In words: Example N: in vivo test on Plasmopara viticola (downy mildew, vine/protective). The following applies: 144 h, vine, protective, assessment 6 days after inoculation, read-out: % Wirkungsgrad. Here is the method:
Emulsifier: 1 part by weight alkylaryl polyglycol ethers For the preparation of a suitable active substance preparation, 1 part by weight of active substance is mixed with the stated quantities of solvent and emulsifier and the concentrate is diluted to the desired concentration with water. For the testing for protective activity, young plants are sprayed with the active substance preparation at the stated application dosage. […] The plants are then moistened and placed in an incubation cabin for 1 day. 6 days after the inoculation, the assessment takes place.

In a further series the test system is Venturia inaequalis. In words: Example O: in vivo test on Venturia inaequalis (apple scab/protective). The following applies: 240 h, protective, assessment 10 days after inoculation, read-out: % Wirkungsgrad. Here is the method: (§1) Emulsifier: 1 part by weight alkylaryl polyglycol ethers For the preparation of a suitable active substance preparation, 1 part by weight of active substance is mixed with the stated quantities of solvent and emulsifier and the concentrate is diluted to the desired concentration with water. For the testing for protective activity, young plants are sprayed with the active substance preparation at the stated application dosage. […] 10 days after the inoculation, the assessment takes place.

The subject of another series is Botrytis cinerea. In words: Example P: in vivo test on Botrytis cinerea (gray mould on bean/protective). As to conditions: 48 h, bean, protective, 250 ppm active substance, assessed 2 days after inoculation, read-out: % Wirkungsgrad (activity level). Here is the method:
as §1, with “dosage. After drying of the spray coating, 2 small pieces of agar with Botrytis cinerea growing on them are laid on every leaf.” for “dosage.”, “2” for “10”, “size of the infection blotches on the leaves is assessed.” for “assessment takes place.”

The mark [3] stands for this setting: LogPA (logP of the stated pure compound or, in a mixture, of the main isomer, 1-substituted 3-aryl-1H-pyrazole).
Setting [4] is: Fusarium proliferatum growth, OD 620, 5 days, read-out: % Inhibition des Pilzwachstums bei 50 μM.
Where [5] appears, read: Fusarium proliferatum, 5 days at 20° C., HPLC-MS/MS, read-out: % Inhibition der FB1 produktion bei 50 μM.
Setting [6] is: 72 h, read-out: % Inhibition des Pilzwachstums bei 50 μM.
The mark [7] stands for this setting: 168 h, read-out: % Inhibition der DON/AcDON produktion bei 50 μM.

What is called chromatographic logP is a lipophilicity value derived from retention on a column. Consider `CC(C)=CCn1ncc(-c2ccncc2)c1-c1c(F)cccc1F` [Compound 22], for which the pest or weed control at 500 ppm in the series on Peronospora parasitica was 97%; in the series on Sphaerotheca fuliginea [1], 71%. Besides, the chromatographic logP in “physchem” (setting [3]) was found to be 1.72.

`COCC(=O)Nc1cc(-c2cn(C3CCCCO3)nc2-c2ccc(F)cc2)ccn1` (stereo not shown) [Compound 23]: the pest or weed control at 500 ppm in the series with Peronospora parasitica came out at 100%. Further, the inhibition at 50 µM in the series with Fusarium proliferatum (setting [4]) is 73%; in the series on Fusarium proliferatum (setting [5]), 100%. Besides, the chromatographic logP in “physchem” (setting [3]) is 2.64.

Consider `Clc1cccc(-c2nn(C3CCCCO3)cc2-c2ccncc2)c1` (stereo not shown) [Compound 28], for which the pest or weed control at 500 ppm in the series on Peronospora parasitica turned out to be 97%. In “physchem” (setting [3]), the chromatographic logP came out at 1.55.

For the compound `Clc1cccc(-c2nn(C3CCCCO3)cc2-c2ccnc3[nH]ccc23)c1` (stereo not shown) [Compound 32], the pest or weed control at 500 ppm in the series on Peronospora parasitica is 79%. Moreover, the chromatographic logP in the series “physchem” (setting [3]) came out at 2.46.

For the compound `FC1(F)Oc2cccc(-c3c(-c4ccncc4)cnn3C3CCCCO3)c2O1` (stereo not shown) [Compound 33], the pest or weed control at 500 ppm with Peronospora parasitica came out at 93%; in the series on Sphaerotheca fuliginea [1] it was 71%. Moreover, the inhibition at 50 µM with Fusarium proliferatum (setting [4]) and with Fusarium proliferatum (setting [5]) was 99% in each case. Besides, in the series “physchem” (setting [3]), the chromatographic logP worked out at 1.64.

As to `CC(C)(C)C(=O)Nc1cc(-c2cn(C3CCCCO3)nc2-c2ccc(F)cc2)ccn1` (stereo not shown) [Compound 41], the pest or weed control at 500 ppm in the series on Peronospora parasitica was determined as 72%; with Sphaerotheca fuliginea [1], 98%. In addition, the inhibition at 50 µM in the series with Fusarium proliferatum (setting [4]) stood at 56%; in the series on Fusarium proliferatum (setting [5]) it was 100%. The chromatographic logP in “physchem” (setting [3]) amounted to 3.19.

In the case of `CC(C)n1cc(-c2ccnc(N)c2)c(-c2ccc(F)cc2)n1` [Compound 46], the results for the pest or weed control at 500 ppm with Peronospora parasitica and with Sphaerotheca fuliginea [1] were 94% and 81%, respectively. Further, the chromatographic logP in “physchem” (setting [3]) was 1.18.

In the case of `COCCOCCn1cc(-c2ccncc2)c(-c2ccc(F)cc2)n1` [Compound 134], the pest or weed control at 500 ppm in the series on Peronospora parasitica turned out to be 94%; in the series on Sphaerotheca fuliginea [1] it was 85%; in the series with Alternaria solani it was 100%. In addition, in “physchem” (setting [3]), the chromatographic logP worked out at 1.04.

As to `CC(C)CC(=O)Nc1cc(-c2cn(C(C)C)nc2-c2ccc(F)cc2)ccn1` [Compound 160], the inhibition at 50 µM in the series on Fusarium graminearum (setting [6]) and with Fusarium graminearum (setting [7]) was 100% throughout. For the same compound, the results for the pest or weed control at 500 ppm with Sphaerotheca fuliginea [2] and in the series on Alternaria solani were 100% and 95%, respectively. In addition, the pest or weed control at 100 ppm in the series with Plasmopara viticola was 79%; in the series with Venturia inaequalis, 94%. The pest or weed control at 250 ppm in the series on Botrytis cinerea was 100%. Besides, in the series “physchem” (setting [3]), the chromatographic logP was found to be 2.82.

Regarding `CC(=O)Nc1cc(-c2cn(C(C)C)nc2-c2ccc(F)cc2)ccn1` [Compound 161], the inhibition at 50 µM in the series with Fusarium graminearum (setting [6]) came to 104%; with Fusarium graminearum (setting [7]), 100%. In addition, the pest or weed control at 500 ppm was 100% in the series with Sphaerotheca fuliginea [2] and 95% in the series with Alternaria solani. The pest or weed control at 100 ppm with Plasmopara viticola and in the series with Venturia inaequalis was 95% throughout. In addition, the pest or weed control at 250 ppm with Botrytis cinerea is 100%. Also, the chromatographic logP in “physchem” (setting [3]) was found to be 1.85.

Regarding `C#CCNc1nccc(-c2cn(CC(C)C)nc2-c2ccc(F)cc2)n1` [Compound 183], the inhibition at 50 µM in the series with Fusarium graminearum (setting [6]) came to 65%; with Fusarium graminearum (setting [7]), 99%. Besides, the figures for the pest or weed control at 500 ppm in the series with Sphaerotheca fuliginea [2] and with Alternaria solani were 94% and 100%, respectively. The pest or weed control at 100 ppm came to 86% in the series on Plasmopara viticola and 73% with Venturia inaequalis. Further, the pest or weed control at 250 ppm with Botrytis cinerea was determined as 93%. In “physchem” (LogPA), this compound showed a chromatographic logP of 2.76.

For the compound `CC(C)n1cc(-c2ccnc(NC(=O)c3ccsc3)c2)c(-c2ccc(F)cc2)n1` [Compound 207], the results for the inhibition at 50 µM in the series on Fusarium graminearum (setting [6]) and with Fusarium graminearum (setting [7]) were 75% and 100%, respectively. Also, the pest or weed control at 500 ppm with Sphaerotheca fuliginea [2] was 100%; with Alternaria solani, 90%. Also, the values for the pest or weed control at 100 ppm in the series on Plasmopara viticola and with Venturia inaequalis were 71% and 86%, respectively. Besides, in the series with Botrytis cinerea, the pest or weed control at 250 ppm stood at 100%. The same compound registered a chromatographic logP in the series “physchem” (LogPA) of 2.96.

`CCC(=O)Nc1cc(-c2cn(CCCl)nc2-c2ccc(F)cc2)ccn1` [Compound 219]: the inhibition at 50 µM came out at 97% in the series on Fusarium proliferatum (setting [4]), 100% with Fusarium proliferatum (setting [5]), 97% in the series on Fusarium graminearum (setting [6]) and 100% with Fusarium graminearum (setting [7]). The pest or weed control at 500 ppm in the series with Sphaerotheca fuliginea [2] came out at 100%. The pest or weed control at 100 ppm with Plasmopara viticola was determined as 95%; in the series with Venturia inaequalis, 96%. The pest or weed control at 250 ppm in the series with Botrytis cinerea amounted to 100%. For the same compound, the chromatographic logP in the series “physchem” (LogPA) came to 2.01.

Consider `O=C(Nc1cc(-c2cn(CC(F)F)nc2-c2ccc(F)cc2)ccn1)c1cccs1` [Compound 236], for which the pest or weed control at 500 ppm came out at 86% in the series on Sphaerotheca fuliginea [2] and 94% in the series on Alternaria solani. Also, the pest or weed control at 100 ppm in the series with Plasmopara viticola was 76%; in the series with Venturia inaequalis, 94%. The pest or weed control at 250 ppm with Botrytis cinerea came to 100%. This compound also yielded a chromatographic logP in the series “physchem” (LogPA) of 2.82.

`O=C(Nc1cc(-c2cn(CC(F)F)nc2-c2ccc(F)cc2)ccn1)c1ccccc1` [Compound 237]: the pest or weed control at 500 ppm in the series with Sphaerotheca fuliginea [2] was 88%; in the series with Alternaria solani, 100%. Further, the pest or weed control at 100 ppm turned out to be 84% in the series on Plasmopara viticola and 95% in the series on Venturia inaequalis. The pest or weed control at 250 ppm in the series on Botrytis cinerea is 100%. This compound had a chromatographic logP in “physchem” (LogPA) of 2.9.

With `CCC(C)C(=O)Nc1cc(-c2cn(CC(F)F)nc2-c2ccc(F)cc2)ccn1` (stereo not shown) [Compound 239], the pest or weed control at 500 ppm worked out at 95% with Sphaerotheca fuliginea [2] and 100% in the series on Alternaria solani. In addition, the pest or weed control at 100 ppm with Plasmopara viticola is 88%; in the series with Venturia inaequalis it was 98%. Also, the chromatographic logP in “physchem” (LogPA) is 2.62.

As for `O=C(Nc1cc(-c2cn(CC3CC3(Cl)Cl)nc2-c2ccc(F)cc2)ccn1)C1CC1` (stereo not shown) [Compound 260], the inhibition at 50 µM with Fusarium graminearum (setting [6]) worked out at 5%; with Fusarium graminearum (setting [7]) it was 99%. In addition, the pest or weed control at 500 ppm was determined as 95% with Sphaerotheca fuliginea [2] and 90% with Alternaria solani. Moreover, the values for the pest or weed control at 100 ppm in the series with Plasmopara viticola and with Venturia inaequalis were 70% and 94%, respectively. Also, the pest or weed control at 250 ppm in the series with Botrytis cinerea stood at 100%. Also, the chromatographic logP in the series “physchem” (LogPA) was found to be 2.67.
